Experimental data taken from patent US4250176A, “Piperazine derivatives” (priority 1979, dated 1981).
≈ marks a conversion by molar mass, not a printed value. Structures can show the parent of a compound that is named as a salt. Where two headings read alike, the source gives them in different places.

Key:
[1] = system: Guinea-pig ileum strips, histamine-induced contraction; experiment: Anti-histamine activity in "vitro": histamine-induced spasms of guinea-pig ileum strips; format: cell-based; settings: Cavia porcellus, 5 min, histamine 0.5 mg/liter, 5 minutes incubation, concentration giving significant inhibition (50%) of the contraction
Description: The histamine--(0.5 mg/liter) induced spasms are recorded Kymographically with an isotonic lever giving a 5-fold magnification.

[2] = system: Guinea pigs sensitized to ovalbumin (anaphylactic shock); experiment: Anaphylaxis in guinea pigs: protection against death after ovalbumin challenge (survival); format: in vivo, guinea pig; settings: Cavia porcellus, estimated ED50, oral, protection against death after i.v. 0.6 mg ovalbumin, read-out: Anaphylaxis in guinea pigs oral effective dose in mg/kg: Survival
Description: The anti-anaphylactic and antihistaminic effects of the subject compounds (I) and salts thereof are studied "in vivo" in guinea pigs.
(§1) Guinea pigs, weighing between 400 and 500 g, are sensitized to ovalbumin by subplantar (s.p.) injection of 0.05 ml of antiserum in the left hind paw. The animals are then starved and orally treated, 24 hours after the sensitization, with saline (=control animals) or a particular dose of the compound under investigation.
The histamine injection (at a dose of 50 μg) was given s.p. in the right hind paw 2 hours after the oral pretreatment with the compound. The diameters of both hind paws are first measured before the histamine injection is given and again 10 minutes thereafter. The animals are challenged intravenously with 0.6 mg of ovalbumin 30 minutes after the histamine injection. All control animals develop typical primary anaphylactic shock symptoms (coughing, difficult breathing, convulsions) and 85% of these control animals die within 15 minutes after the ovalbumin injection. Protection against death is used as the criterion for possible drug effects and the estimated ED50 -value, i.e. the oral dose whereby the protection is observed in 50% of the guinea pigs, is listed in the tables below.

[3] = system: histamine paw oedema in guinea pigs; experiment: Histamine paw oedema in guinea pigs; format: in vivo, guinea pig; settings: Cavia porcellus, oral dose giving paw reaction below 10 units 10 minutes after 50 μg histamine s.p., 2 hours after dosing, read-out: Anaphylaxis in guinea pigs oral effective dose in mg/kg: Histamine oedema
Description: as §1, with “investigation. The histamine injection (at a dose of 50 μg) was given s.p. in the right hind paw 2 hours after the oral pretreatment with the compound.” for “investigation.”

[4] = Table I-a, read-out: Histamine in "vitro" (ileum) effective conc.
[5] = Table I-b, read-out: Histamine in "vitro" (ileum) effective conc.
[6] = Table I-e, read-out: Histamine in "vitro" (ileum) effective dose

O=c1[nH]c2cc(Cl)ccc2n1CCCN1CCN(C(c2ccccc2)c2ccccc2)CC1 [5-chloro-1-{3-[4-(diphenylmethyl)-1-piperazinyl]propyl}-1,3-dihydro-2H-benzimidazol-2-one]
IC50 [1, 4]: 0.01 µg/mL (≈ 0.0217 µM)
ED50 ([2]; Table I-a): 0.63 mg/kg
minimal effective dose ([3]; Table I-a): 1.25 mg/kg

O=c1[nH]c2ccccc2n1CCCCCCN1CCN(C(c2ccccc2)c2ccccc2)CC1 [I-a: L=H, R1=H, R2=H, (CH2)6, R6=H, R7=H, 1-{6-[4-(diphenylmethyl)-1-piperazinyl]hexyl}-1,3-dihydro-2H-benzimidazol-2-one]
IC50 [1, 4]: 0.01 µg/mL (≈ 0.0213 µM)
ED50 ([2]; Table I-a): 1.25 mg/kg
minimal effective dose ([3]; Table I-a): 2.5 mg/kg

O=c1[nH]c2ccccc2n1CCCN1CCN(C(c2ccc(F)cc2)c2ccc(F)cc2)CC1 [1-[3-{4-[bis(4-fluorophenyl)methyl]-1-piperazinyl}propyl]-1,3-dihydro-2H-benzimidazol-2-one]
IC50 [1, 4]: 0.01 µg/mL (≈ 0.0216 µM)
ED50 ([2]; Table I-a): 0.31 mg/kg
minimal effective dose ([3]; Table I-a): 0.16 mg/kg

Cc1nc2ccccc2n1CCCCN1CCN(C(c2ccccc2)c2ccccc2)CC1 [I-b: M=CH3, R1=H, (CH2)4, R6=H, R7=H, 1-{4-[4-(diphenylmethyl)-1-piperazinyl]butyl}-2-methyl-1H-benzimidazole]
IC50 [1, 5]: 0.005 µg/mL (≈ 0.0114 µM)
ED50 ([2]; Table I-b): 1.25 mg/kg
minimal effective dose ([3]; Table I-b): 1.25 mg/kg

Cl.O=c1[nH]c2ccccc2n1CCN1CCC(OC(c2ccccc2)c2ccccc2)CC1 [1-{2-[4-(diphenylmethoxy)-1-piperidinyl]ethyl}-1,3-dihydro-2H-benzimidazol-2-one hydrochloride]
IC50 ([1]; Table I-d, read-out: Histamine in "vitro" (ileum) effective dose): 0.0025 µg/mL
ED50 ([2]; Table I-d): 0.31 mg/kg
minimal effective dose ([3]; Table I-d): 0.16 mg/kg

Fc1ccc(C(c2ccccc2)N2CCN(CCCCn3cnc4ccccc43)CC2)cc1 (stereo not drawn) [I-b: M=H, R1=H, (CH2)4, R6=4-F, R7=H, 1-[4-{4-[(4-fluorophenyl)phenylmethyl]-1-piperazinyl}butyl]-1H-benzimidazole]
IC50 [1, 5]: 0.005 µg/mL (≈ 0.0113 µM)
ED50 ([2]; Table I-b): 0.08 mg/kg
minimal effective dose ([3]; Table I-b): 0.16 mg/kg

Clc1ccc2c(c1)nc(Cc1ccccc1)n2CCCN1CCN(C(c2ccccc2)c2ccccc2)CC1 [5-chloro-1-{3-[4-(diphenylmethyl)-1-piperazinyl]propyl}-2-(phenylmethyl)-1H-benzimidazole trihydrochloride.hydrate]
ED50 ([2]; Table I-b): 2.5 mg/kg

O=c1[nH]c2ccccc2n1CCCN1CCN(C(c2ccncc2)c2ccc(F)cc2)CC1 (stereo not drawn) [I-e: Ar1=4-FC6H4, Ar2=4-pyridinyl, 1-[3-{4-[(4-fluorophenyl)(4-pyridinyl)methyl]-1-piperazinyl}propyl]-1,3-dihydro-2H-benzimidazol-2-one]
IC50 [1, 6]: 0.16 µg/mL (≈ 0.359 µM)
minimal effective dose ([3]; Table I-e): ≤ 2.5 mg/kg

Clc1ccc2c(c1)nc(C1CCCCC1)n2CCCN1CCN(C(c2ccccc2)c2ccccc2)CC1 [5-chloro-2-cyclohexyl-1-{5-[4-diphenylmethyl)-1-piperazinyl]propyl}-1H-benzimidazole]
ED50 ([2]; Table I-b): 0.63 mg/kg
minimal effective dose ([3]; Table I-b): 2.5 mg/kg

Clc1ccc2nc(-c3ccccc3)n(CCCN3CCN(C(c4ccccc4)c4ccccc4)CC3)c2c1 [I-b: M=C6H5, R1=6-Cl, (CH2)3, R6=H, R7=H, 6-chloro-1-{3-[4-(diphenylmethyl)-1-piperazinyl]propyl}-2-phenyl-1H-benzimidazole]
ED50 ([2]; Table I-b): 2.5 mg/kg

O=c1[nH]c2cccc(Cl)c2n1CCCN1CCN(C(c2ccccc2)c2ccccc2)CC1 [4-chloro-3-{3-[4-(diphenylmethyl)-1-piperazinyl]propyl}-1,3-dihydro-2H-benzimidazol-2-one]
IC50 [1, 4]: 0.08 µg/mL (≈ 0.174 µM)
ED50 ([2]; Table I-a): ≥ 2.5 mg/kg

Clc1ccc2nc(C3CCCCC3)n(CCCN3CCN(C(c4ccccc4)c4ccccc4)CC3)c2c1 [6-chloro-2-cyclohexyl-1-[3-[4-(diphenylmethyl)-1-piperazinyl]propyl}-1H-benzimidazole]
ED50 ([2]; Table I-b): 2.5 mg/kg

c1ccc(Cc2nc3ccccc3n2CCCN2CCN(C(c3ccccc3)c3ccccc3)CC2)cc1 [I-b: M=C6H5CH2, R1=H, (CH2)3, R6=H, R7=H, 1-{3-[4-(diphenylmethyl)-1-piperazinyl]propyl}-2-(phenylmethyl)-1H-benzimidazole trihydrochloride.trihydrate]
IC50 [1, 5]: ≥ 0.16 µg/mL

O=c1[nH]c2ccccc2n1CCCN1CCN(C(c2ccccc2)c2ccccc2Cl)CC1 (stereo not drawn) [1-[3-{4-[(2-chlorophenyl)phenylmethyl]-1-piperazinyl}-propyl]-1,3-dihydro-2H-benzimidazol-2-one]
IC50 [1, 4]: 0.08 µg/mL (≈ 0.174 µM)

CCc1nc2cc(Cl)ccc2n1CCCN1CCN(C(c2ccccc2)c2ccccc2)CC1 [I-b: M=C2H5, R1=5-Cl, (CH2)3, R6=H, R7=H, 5-chloro-1-{3-[4-(diphenylmethyl)-1-piperazinyl]propyl}-2-ethyl-1H-benzimidazole trihydrochloride.hydrate]
IC50 [1, 5]: 0.01 µg/mL

CC(=O)N=c1[nH]c2ccccc2n1CCCN1CCN(C(c2ccccc2)c2ccccc2)CC1 [I-b: M=CH3CONH, R1=H, (CH2)3, R6=H, R7=H, N-[1-{3-[4-(diphenylmethyl)-1-piperazinyl]propyl}-1,3-dihydro-2H-benzimidazol-2-ylidene]acetamide]
IC50 [1, 5]: ≥ 0.16 µg/mL
ED50 ([2]; Table I-b): 2.5 mg/kg

CNC(=O)n1c(=O)n(CCCN2CCN(C(c3ccccc3)c3ccccc3)CC2)c2ccccc21 [3-{3-[4-(diphenylmethyl)-1-piperazinyl]propyl}-2,3-dihydro-N-methyl-2-oxo-1H-benzimidazole-1-carboxamide]
IC50 [1, 4]: 0.02 µg/mL (≈ 0.0414 µM)

c1ccc(-c2nc3ccccc3n2CCCN2CCN(C(c3ccccc3)c3ccccc3)CC2)cc1 [I-b: M=C6H5, R1=H, (CH2)3, R6=H, R7=H, 1-{3-[4-(diphenylmethyl)-1-piperazinyl]propyl}-2-phenyl-1H-benzimidazole]
IC50 [1, 5]: 0.08 µg/mL (≈ 0.164 µM)

O=c1n(CCCN2CCN(C(c3ccccc3)c3ccccc3)CC2)c2ccc(Cl)cc2n1-c1ccccc1 [5-chloro-1-{3-[4-(diphenylmethyl)-1-piperazinyl]propyl}-1,3-dihydro-3-phenyl-2H-benzimidazol-2-one dihydrochloride.hemihydrate]
IC50 [1, 4]: 0.08 µg/mL

O=c1[nH]c2ccccc2n1CCCN1CCN(C(c2ccccc2)c2cccnc2)CC1 (stereo not drawn) [I-e: Ar1=C6H5, Ar2=3-pyridinyl, 1,3-dihydro-1-[3-{4-[phenyl(3-pyridinyl)methyl]-1-piperazinyl}propyl]-2H-benzimidazol-2-one]
IC50 [1, 6]: 0.08 µg/mL (≈ 0.187 µM)
minimal effective dose ([3]; Table I-e): < 2.5 mg/kg

CC(CN1CCN(C(c2ccccc2)c2ccccc2)CC1)Cn1cnc2ccccc21 (stereo not drawn) [1-{3-[4-(diphenylmethyl)-1-piperazinyl]-2-methylpropyl}-1H-benzimidazole trihydrochloride.hemihydrate]
IC50 [1, 5]: 0.02 µg/mL

O=c1[nH]c2ccccc2n1CCCN1CCN(C(c2ccccc2)c2ccccn2)CC1 (stereo not drawn) [I-e: Ar1=C6H5, Ar2=2-pyridinyl, 1,3-dihydro-1-[3-{4-[phenyl(2-pyridinyl)methyl]-1-piperazinyl}propyl]-2H-benzimidazol-2-one]
IC50 [1, 6]: 0.16 µg/mL (≈ 0.374 µM)
minimal effective dose ([3]; Table I-e): 2.5 mg/kg

CCc1nc2ccccc2n1CCN1CCN(C(c2ccccc2)c2ccccc2)CC1 [I-b: M=C2H5, R1=H, (CH2)2, R6=H, R7=H, 1-{2-[4-(diphenylmethyl)-1-piperazinyl]ethyl}-2-ethyl-1H-benzimidazole trihydrochloride.hydrate]
IC50 [1, 5]: ≥ 0.16 µg/mL

Cc1ccc(C)c(C(c2ccccc2)N2CCN(CCCn3c(=O)[nH]c4ccccc43)CC2)c1 (stereo not drawn) [I-e: Ar1=C6H5, Ar2=2,5-(CH3)2C6H3, 1-[3-{4-[(2,5-dimethylphenyl)phenylmethyl]-1-piperazinyl}propyl]-1,3-dihydro-2H-benzimidazol-2-one]
IC50 [1, 6]: 0.16 µg/mL (≈ 0.352 µM)
